Where two headings read alike, the source gives them in different places.
Key:
[1] = tested on: P. berghei-ANKA-GFP-LucCON liver stage parasites in HepG2-A16-CD81EGFP cells; assay: P. berghei liver stage Pb-Luc assay, Method 1 (UCSD, 1536-well); format: cell-based, Plasmodium berghei; settings: for activity at 1 µM / activity at 3 µM: 48 h, average of 2 wells on a 1536 well plate; for activity at 1 µM: 1 uM (compounds provided at 10 mM); for activity at 3 µM: 3 uM (compounds provided at 10 mM); for Max Resp (signal direction of the dose response) / AC50 / Log AC50 (M): Method 1; for Max Resp (signal direction of the dose response): Decrease = decreasing P. berghei viability with dose, Increase = increasing signal, Inactive = no dose response
[2] = in vitro; settings: human
[3] = tested on: Plasmodium falciparum Dd2 asexual blood stage parasites; assay: microbe, parasite or virus in culture; parameters: species or system Plasmodium falciparum Dd2 in human erythrocytes; single determination (one 11-point concentration-response curve); settings: Plasmodium falciparum, DD2, Erythrocyte, 72 h; read-out: AC50
[4] = Plasmodium berghei, column 11, read-out: Pb-Luc (P. berghei liver stage), % of control, lower concentration, first repeat
[5] = Plasmodium berghei, column 12, read-out: Pb-Luc (P. berghei liver stage), % of control, lower concentration, second repeat
[6] = Plasmodium berghei, column 8, read-out: Pb-Luc (P. berghei liver stage), % of control, higher concentration, first repeat
[7] = Plasmodium berghei, column 9, read-out: Pb-Luc (P. berghei liver stage), % of control, higher concentration, second repeat
[8] = HepG2-A16-CD81EGFP cells, uninfected
[9] = Plasmodium berghei, Hill fit, 50% of maximum activity response, read-out: AC50
[10] = Plasmodium berghei, log10 of molar AC50 from Hill fit, read-out: Log AC50 (converted)
[11] = Hill fit, 50% of maximum activity response, read-out: AC50
[12] = log10 of molar AC50 from Hill fit

| SMILES | activity at 1 µM [1, 4] [%] | activity at 1 µM [1, 5] [%] | activity at 3 µM [1, 6] [%] | activity at 3 µM [1, 7] [%] | viability at 48 h, 1 µM [2, 8] [%] | viability at 48 h, 3 µM [2, 8] [%] | AC50 [3] [µM] | Max Resp (signal direction of the dose response) [1] | viability at 48 h [2, 8] [%] | AC50 [1, 9] [µM] | AC50 [1, 10] [µM] | viability at 66 h [2] [%] | AC50 [1, 11] [µM] | Log AC50 (M) [1, 12] [M] | viability at 66 h [2, 8] [%] | viability at 48 h [2] [%] | viability at 48 h, 1 µM [2] [%] |
| --- | --- | --- | --- | --- | --- | --- | --- | --- | --- | --- | --- | --- | --- | --- | --- | --- | --- |
| COc1ccccc1CNCC(O)(c1ccc(Cl)cc1)c1ccc(Cl)cc1 [MLS000325719-01] | 101 | 103 | 108 | 98 | 95 | 101 | 1.5 |  |  |  |  |  |  |  |  |  |  |
| Cc1ccc(NC(=O)c2cc(C(=O)c3cc(Cl)ccc3O)cn(-c3ccc(C)cc3)c2=O)cc1 [MLS000374606-01] | 98 | 87 | 59 | 61 | 106 | 93 | 0.422 |  |  |  |  |  |  |  |  |  |  |
| COc1cc(Cl)c(C)cc1NC(C)C(=O)Nc1cc(C(F)(F)F)ccc1N1CCOCC1 (centres unmarked) [MLS000375301-01] | 124 | 129 | 103 | 103 | 109 | 94 | 0.422 |  |  |  |  |  |  |  |  |  |  |
| Nc1cc[n+](CC(=O)c2ccc3c(c2)OCCO3)cc1 [MLS000391090-01] |  |  |  |  | 97.8 |  | 13.3 | Inactive | 97.8 |  |  |  |  |  |  |  |  |
| COc1ccc(C)cc1N(C(=O)COc1cccc(F)c1)c1nc2ccccc2s1 [MLS000394477-01] | 105 | 106 | 107 | 110 | 91 | 106 | 5.96 |  |  |  |  |  |  |  |  |  |  |
| CCOC(=O)c1c(NC(=O)c2ccccc2)sc2c(O)c(CN(CC)CC)ccc12 [MLS000523141-01] | 104 | 107 | 99 | 98 | 91 | 102 | 0.15 |  |  |  |  |  |  |  |  |  |  |
| CCOC(=O)c1cnc2c(C)cc(C)cc2c1O [MLS000530578-01] |  |  |  |  |  |  | 4.22 |  |  | 1.41 | 1.41 | 104 |  |  |  |  |  |
| CCOC(=O)c1nnn(-c2nonc2-n2cccc2)c1CN1CCC(C(=O)OCC)CC1 [MLS000538888-01] | 103 | 96 | 92 | 82 | 108 | 103 | 4.73 |  |  |  |  |  |  |  |  |  |  |
| CC1=C(CC(=O)c2ccc(Cl)cc2)C(=O)c2ccccc2C1=O [MLS000543314-01] | 78 | 79 | 77 | 70 | 105 | 100 | 0.211 |  |  |  |  |  |  |  |  |  |  |
| CCCOc1ccc(CCc2nnc(S)n2Cc2ccccc2)cc1 [MLS000562311-01] | 157 | 149 | 161 | 162 | 122 | 100 | 5.31 |  |  |  |  |  |  |  |  |  |  |
| COCC(C)n1c(C)cc(C(=O)CSc2nnc(Nc3ccccc3F)s2)c1C (centres unmarked) [MLS000566129-01] | 126 | 124 | 118 | 120 | 95 | 101 | 2.99 |  |  |  |  |  |  |  |  |  |  |
| CC(C)(C)N1C(=O)c2ccc(C(=O)Nc3ccc(-c4nc5ccccc5[nH]4)cc3)cc2C1=O [MLS000567491-01] | 114 | 117 | 141 | 128 | 94 | 108 | 6.68 |  |  |  |  |  |  |  |  |  |  |
| CC(C)COc1ccc(C(=O)N/C(=C\c2cccc([N+](=O)[O-])c2)C(=O)OC(C)C)cc1 [MLS000574251-01] | 90 | 84 | 65 | 69 | 111 | 102 | 0.531 |  |  |  |  |  |  |  |  |  |  |
| O=C(Nc1cccnc1)c1cc(-c2cccnc2)nc2ccc(Br)cc12 [MLS000582206-01] | 112 | 106 | 80 | 95 | 109 | 104 | 2.66 |  |  |  |  |  |  |  |  |  |  |
| CCCc1ccc(OCc2nc(-c3ccc(NC(=O)c4cccs4)cc3)no2)cc1 [MLS000584893-01] |  |  |  |  | 97.2 |  | 15 | Decrease | 97.2 | 1.41 | 1.41 |  |  |  |  |  |  |
| Fc1ccc(-c2csc3ncnc(Cl)c23)cc1 [MLS000590541-01] | 115 | 105 | 120 | 132 | 111 | 101 | 3.35 |  |  |  |  |  |  |  |  |  |  |

| SMILES | activity at 1 µM [1, 4] [%] | activity at 1 µM [1, 5] [%] | activity at 3 µM [1, 6] [%] | activity at 3 µM [1, 7] [%] | viability at 48 h, 1 µM [2, 8] [%] | viability at 48 h, 3 µM [2, 8] [%] | AC50 [3] [µM] | Max Resp (signal direction of the dose response) [1] | viability at 48 h [2, 8] [%] | AC50 [1, 9] [µM] | AC50 [1, 10] [µM] | viability at 66 h [2] [%] | AC50 [1, 11] [µM] | Log AC50 (M) [1, 12] [M] | viability at 66 h [2, 8] [%] | viability at 48 h [2] [%] | viability at 48 h, 1 µM [2] [%] |
| --- | --- | --- | --- | --- | --- | --- | --- | --- | --- | --- | --- | --- | --- | --- | --- | --- | --- |
| OCCNc1nc(Nc2ccc(Br)cc2)nc2ccccc12 [MLS000625070-01] |  |  |  |  |  |  | 2.66 | Decrease |  | 1.41 | 1.41 |  | 2.24 | -5.650 | 97 |  |  |
| CCOC(=O)c1c(C)oc2c1C(=O)c1ccccc1C2=O [MLS000684830-01] | 95 | 85 | 72 | 93 | 105 | 99 | 0.422 |  |  |  |  |  |  |  |  |  |  |
| Oc1ccccc1Nc1nc(NCc2ccco2)c2ccccc2n1 [MLS000693437-01] |  |  |  |  | 95.6 |  | 2.99 | Inactive | 95.6 |  |  |  |  |  |  |  |  |
| CC1CCCCN1S(=O)(=O)c1ccc(C(=O)Nc2ccccc2-c2nc3ccccc3[nH]2)cc1 (centres unmarked) [MLS000697052-01] |  |  |  |  |  |  | 7.5 |  |  | 0.355 | 0.355 |  |  |  | 104 |  |  |
| CCOC(=O)c1ccc(N=C(S)N2CCN(CCNC3=CC(=O)CC(C)(C)C3)CC2)cc1 [MLS000710946-01] | 118 | 96 | 134 | 116 | 96 | 101 | 5.96 |  |  |  |  |  |  |  |  |  |  |
| COc1ccc(-c2c(C)nn3c(N)c(C#N)cnc23)cc1OC [MLS000718813-01] |  |  |  |  |  |  | 1.68 | Decrease |  | 1.26 | 1.26 |  | 1.41 | -5.850 | 108 |  |  |
| CCOc1ccc(NC(=O)c2cc3ccccc3cc2O)cc1 [MLS000736677-01] |  |  |  |  |  |  | 5.31 | Decrease |  | 0.501 | 0.501 |  |  |  |  | 100 | 100 |
| CCCCCNc1nc2sc3c(c2c(=O)n1-c1cccc(Cl)c1)CCN(C)C3 [MLS000762913-01] | 99 | 101 | 72 | 91 | 92 | 105 | 7.5 |  |  |  |  |  |  |  |  |  |  |
| Cc1ccc(/C=N/Nc2cc(C)nc(NCc3ccccc3)n2)cc1 [MLS000769291-01] | 97 | 106 | 138 | 126 | 98 | 95 | 5.31 |  |  |  |  |  |  |  |  |  |  |
| COc1cc(O)c(C(CCN2CCCCC2)c2ccc3c(c2)OCO3)c(OC)c1 (centres unmarked) [MLS000879495-01] | 100 | 116 | 99 | 98 | 113 | 94 | 1.33 |  |  |  |  |  |  |  |  |  |  |
| COc1cc(O)c(C(CCN2CCN(c3ccccc3)CC2)c2cc(OC)c(OC)c(OC)c2)c(OC)c1 (centres unmarked) [MLS000879517-01] | 87 | 82 | 84 | 91 | 96 | 102 | 1.33 |  |  |  |  |  |  |  |  |  |  |
| COc1cc(O)c(C(CCN2CCN(c3ccccc3)CC2)c2ccc3c(c2)OCO3)c(OC)c1 (centres unmarked) [MLS000879526-01] | 105 | 112 | 97 | 92 | 117 | 96 | 0.841 |  |  |  |  |  |  |  |  |  |  |
| NC1=NC[C@@H](Cc2ccc(O)cc2)N1CCCCC1CCCCC1 [MLS000888822-01] | 90 | 82 | 35 | 46 | 116 | 94 | 4.73 |  |  |  |  |  |  |  |  |  |  |
| CCN1CCN(Cc2ccc(NC(=O)c3cc(NC(=O)c4cnn(-c5ccccc5)c4N)cc(OC)c3)cc2C(F)(F)F)CC1 [MLS000911569-01] | 116 | 92 | 116 | 103 | 98 | 106 | 2.11 |  |  |  |  |  |  |  |  |  |  |
| O=C(Nc1ccc(-c2csc(Nc3ccccc3)n2)cc1)c1cc([N+](=O)[O-])cc(C(F)(F)F)c1 [MLS000911606-01] |  |  |  |  |  |  | 2.11 |  |  | 2.82 | 2.82 |  |  |  | 104 |  |  |
